Laboratory results reported in US12018023B2 (NERVIANO MEDICAL SCIENCES S.R.L., priority 2018, dated 2024).

Tests used:
HT-1080 (IDH1^R132C) = test: Cellular 2-HG production assay, HT-1080; format: cell-based; settings: Homo sapiens, HT-1080, 72 h, inhibition of 2HG production, 72 hr incubation, LC-MS/MS; read-out: HT1080 2-HG IC50
In short: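 Cells in E-MEM/10% FCS (G418 500 μg/mL for the transfected U87-MG line) at 500 per well got compound 24 h after seeding and were incubated 72 h at 37 °C. Medium 2-HG was measured by LC-MS/MS with 2-HG-d3 internal standard; IC50 came from sigmoidal fitting versus controls.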

IDH1WT enzyme = target: T1, IDH1WT enzyme (Homo sapiens, UniProt O75874); test: Enzymatic assay for IDH1 wild-type (NADPH forming assay); format: biochemical
T1 construct: purchased not specified
Protocol: IDH1WT enzymatic activity converting isocitric acid to alpha-ketoglutarate is measured using a NADPH forming assay. In the assay the forming cofactor is measured in continuous with the addition of a catalytic excess of diaphorase and resazurin, to generate a fluorescent signal in proportion to the amount of NADPH forming.
Compounds were preincubated with the enzyme, then the reaction was started by the addition of NADP^+, isocitrate, diaphorase and a corresponding substrate, resazurin. Diaphorase reduces resazurin to the highly fluorescent resorufin with the concomitant oxidation of NADPH to NADP. Specifically, 0.2 uL of test compound, previously serially diluted 1 to 3, 10 experimental points from 1 mM in DMSO, was added to 0.016 nM IDH1WT enzyme in 10 μL of Assay Buffer (150 mM NaCl, 50 mM Tris-HCl pH 7.6, 10 mM MgCl2, 0.001% Triton X-100, 4 mM β-mercaptoethanol); the mixture is incubated for 15 minutes at room temperature. The reaction is started with the addition of 10 μL of Substrate Mix (400 μM NADP^+, 40 μM iso-citrate, 5 ugr/mL Diaphorase and 7 μM resazurin in Assay Buffer), the mixture is incubated at room temperature and the reaction is reading on a ViewLux as platereader at Ex544/Em590 in continuous.

[1] = target: T2, IDH1^R132H homodimer enzyme (Homo sapiens, UniProt O75874, R132H); test: NADPH depletion assay, IDH1 R132H; format: biochemical
T2 construct: purchased not specified
In short: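 IDH1 R132H enzyme (8 nM as diluted) in Tris-HCl pH 7.6 with 10 mM MgCl2, 0.001% Triton X-100 and 4 mM β-mercaptoethanol is preincubated 15 min at RT with compound. Substrate mix (12 uM NADPH, 3.4 mM α-ketoglutarate) is added for 60 min; remaining NAD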

IDH2^R172K = target: T3, IDH2^R172K (Homo sapiens, UniProt P48735, R172K); test: NADPH depletion assay, IDH2 R172K; format: biochemical
T3 construct: purchased not specified
T3 sequence (P48735 40-452 R172K): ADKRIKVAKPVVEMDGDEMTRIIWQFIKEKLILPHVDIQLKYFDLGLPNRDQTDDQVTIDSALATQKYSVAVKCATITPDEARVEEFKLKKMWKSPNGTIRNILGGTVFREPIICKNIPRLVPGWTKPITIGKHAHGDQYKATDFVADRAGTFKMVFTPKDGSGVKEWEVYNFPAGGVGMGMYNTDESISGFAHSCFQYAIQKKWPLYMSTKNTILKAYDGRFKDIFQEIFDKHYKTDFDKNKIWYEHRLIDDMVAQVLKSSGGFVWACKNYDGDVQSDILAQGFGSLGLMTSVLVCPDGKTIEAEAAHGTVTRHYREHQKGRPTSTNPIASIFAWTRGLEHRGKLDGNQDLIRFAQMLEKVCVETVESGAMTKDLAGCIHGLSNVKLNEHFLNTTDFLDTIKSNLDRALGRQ
In short: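 This NADPH depletion assay measures NADPH left after conversion of alpha-ketoglutarate (0.55 mM final) by 16 nM IDH2 R172K over 60 min at room temperature, after a 15 min compound preincubation in pH 7.6 Tris buffer. Substrate mix held 12 μM NADPH. Diaphorase/resazurin gave the fluorescence read-out at 544/590 nm.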

IDH1^R132C = target: T4, IDH1^R132C (Homo sapiens, UniProt O75874, R132C); test: NADPH depletion assay, IDH1 R132C; format: biochemical
T4 construct: purchased not specified
In short: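 Fluorescence readout (Ex544/Em590) of NADPH left after diaphorase/resazurin addition. Alpha-ketoglutarate 0.14 mM final, enzyme 2 nM final; compound preincubation 15 min, then 60 min reaction, both at room temperature, pH 7.6 Tris buffer.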

T1 sequence (O75874 whole entry): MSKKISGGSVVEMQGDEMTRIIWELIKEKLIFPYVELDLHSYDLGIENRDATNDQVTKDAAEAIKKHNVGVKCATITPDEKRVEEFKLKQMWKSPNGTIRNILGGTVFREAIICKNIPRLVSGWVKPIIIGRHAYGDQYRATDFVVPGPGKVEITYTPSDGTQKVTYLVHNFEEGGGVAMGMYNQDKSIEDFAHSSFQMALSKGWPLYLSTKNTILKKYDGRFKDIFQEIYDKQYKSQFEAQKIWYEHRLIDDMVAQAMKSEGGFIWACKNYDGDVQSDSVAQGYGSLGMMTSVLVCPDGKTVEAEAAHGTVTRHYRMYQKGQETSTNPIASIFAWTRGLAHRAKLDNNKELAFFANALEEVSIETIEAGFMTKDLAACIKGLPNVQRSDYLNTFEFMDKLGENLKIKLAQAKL
T4 sequence (O75874 whole entry R132C): as the sequence (O75874 whole entry) above, with R132C counted along it
T2 sequence (O75874 whole entry R132H): as the sequence (O75874 whole entry) above, with R132H counted along it

Structure (SMILES) | IC50 (HT-1080 (IDH1^R132C)) | IC50 (IDH1WT enzyme) | IC50 [1] | IC50 (IDH2^R172K) | IC50 (IDH1^R132C)
C=CC(=O)N1CCN([C@@H](CC2CC2)c2ccc(C3(Nc4ncc5ccc(=O)n(C(C)C)c5n4)CC3)cc2)CC1 (single isomer, unassigned) [cpd 246] | 2.1 nM | 231 nM | 2 nM | 19 nM | 1 nM
C=CC(=O)N1CCN([C@H](CC)c2ccc(C3(Nc4ncc5ccc(=O)n(C(C)C)c5n4)CC3)cc2)CC1 (single isomer, unassigned) [cpd 248] | 3.1 nM | 216 nM | 4 nM | 30 nM | 2 nM
C=CC(=O)N1CCN([C@@H](CC)c2ccc(C3(Nc4ncc5ccc(=O)n(C(C)C)c5n4)CC3)cc2)CC1 (single isomer, unassigned) [cpd 249] | 2.9 nM | 215 nM | 5 nM | 33 nM | 3 nM
C=CC(=O)N1CC=C(c2ccc([C@H](C)Nc3ncc4ccc(=O)n([C@@H](C)C(C)C)c4n3)cc2)CC1 [cpd 168, 2-({(1S)-1-[4-(1-acryloyl-1,2,3,6-tetrahydropyridin-4-yl)phenyl]ethyl}amino)-8-[(2S)-3-methylbutan-2-yl]pyrido [2,3-d]pyrimidin-7(8H)-one] | – | 758 nM | 29 nM | 137 nM | 16 nM
C=CC(=O)N1CCN(Cc2ccc([C@H](C)Nc3ncc4ccc(=O)n([C@@H](C)C(F)(F)F)c4n3)cc2)CC1 [cpd 169, 2-{[(1S)-1-{4-[(4-acryloylpiperazin-1-yl)methyl]phenyl}ethyl]amino}-8-[(2S)-1,1,1-trifluoropropan-2-yl]pyrido [2,3-d]pyrimidin-7(8H)-one] | – | 2850 nM | 193 nM | 414 nM | 179 nM
C=CC(=O)N1CCN(c2ccc([C@H](C)Nc3ncc4ccc(=O)n([C@@H](C)C(C)C)c4n3)cn2)CC1 [cpd 181, 2-({(1S)-1-[6-(4-acryloylpiperazin-1-yl)pyridin-3-yl]ethyl}amino)-8-[(2S)-3-methylbutan-2-yl]pyrido[2,3-d]pyrimidin-7(8H)-one] | – | 2140 nM | 175 nM | 878 nM | 351 nM
C=CC(=O)N1CCN(Cc2ccc([C@H](C)Nc3ncc4ccc(=O)n(C(C)C)c4n3)cc2F)CC1 [cpd 183, 2-{[(1S)-1-{4-[(4-acryloylpiperazin-1-yl)methyl]-3-fluorophenyl}ethyl]amino}-8-(propan-2-yl)pyrido[2,3-d]pyrimidin-7(8H)-one] | 21 nM | 899 nM | 52 nM | – | 39 nM
C=CC(=O)N1CCN(Cc2ccc([C@H](C)Nc3ncc4ccc(=O)n(C(C)C)c4n3)cc2)CC1 [cpd 184, 2-{[(1S)-1-{4-[(4-acryloylpiperazin-1-yl)methyl]phenyl}ethyl]amino}-8-(propan-2-yl)pyrido[2,3-d]pyrimidin-7(8H)-one] | 28 nM | 2870 nM | 126 nM | 201 nM | 227 nM
C=CC(=O)N1CCN(Cc2ccc([C@H](C)Nc3ncc4ccc(=O)n(CC)c4n3)cc2)CC1 [cpd 186, 2-{[(1S)-1-{4-[(4-acryloylpiperazin-1-yl)methyl]phenyl}ethyl]amino}-8-ethylpyrido[2,3-d]pyrimidin-7(8H)-one] | – | 5460 nM | 392 nM | 431 nM | 811 nM
C=CC(=O)N1CCN(C(=O)c2ccc([C@H](C)Nc3ncc4ccc(=O)n([C@@H](C)C(C)C)c4n3)cc2F)CC1 [cpd 191, 2-{[(1S)-1-{4-[(4-acryloylpiperazin-1-yl)carbonyl]-3-fluorophenyl}ethyl]amino}-8-[(2S)-3-methylbutan-2-yl]pyrido[2,3-d]pyrimidin-7(8H)-one] | 40 nM | 2990 nM | 70 nM | 902 nM | 116 nM
C=CC(=O)N1CCN(C(CC)c2ccc([C@H](C)Nc3ncc4ccc(=O)n(CC)c4n3)cc2)CC1 (stereo partly drawn) [cpd 214, 2-{[(1S)-1-{4-[1-(4-acryloylpiperazin-1-yl)propyl]phenyl}ethyl]amino}-8-ethylpyrido[2,3-d]pyrimidin-7(8H)-one] | 2.1 nM | 64 nM | 4 nM | 15 nM | 2 nM

Continued, values first:

IC50 (HT-1080 (IDH1^R132C)) | IC50 (IDH1WT enzyme) | IC50 [1] | IC50 (IDH2^R172K) | IC50 (IDH1^R132C) | Structure (SMILES)
1 nM | 224 nM | 2 nM | 20 nM | 2 nM | C=CC(=O)N1CCN([C@H](CC2CC2)c2ccc(C3(Nc4ncc5ccc(=O)n(C(C)C)c5n4)CC3)cc2)CC1 (single isomer, unassigned) [cpd 245]
– | 6800 nM | 78 nM | – | 25 nM | C=C(C)C(=O)N1CCN(Cc2ccc([C@H](C)Nc3ncc4ccc(=O)n(CC(C)(C)C)c4n3)cc2)CC1 [cpd 144, 8-(2,2-dimethylpropyl)-2-{[(1S)-1-(4-{[4-(2-methylacryloyl)piperazin-1-yl]methyl}phenyl)ethyl]amino} pyrido [2,3-d]pyrimidin-7(8H)-one]
– | 908 nM | 22 nM | 299 nM | 13 nM | C=CC(=O)N1CCN(Cc2ccc([C@H](C)Nc3ncc4ccc(=O)n([C@@H](C)C(C)C)c4n3)cc2)CC1 [cpd 161, 2-{(S)-1-[4-(4-Acryloyl-piperazin-1-ylmethyl)-phenyl]-ethylamino}-8-((S)-1,2-dimethyl-propyl)-8H-pyrido[2,3-d]pyrimidin-7-one]
– | 3900 nM | 84 nM | – | 30 nM | C=C(C)C(=O)N1CCN(Cc2ccc([C@H](C)Nc3ncc4ccc(=O)n([C@@H](C)C(C)C)c4n3)cc2)CC1 [cpd 162, 8-((S)-1,2-Dimethyl-propyl)-2-((S)-1-{4-[4-(2-methyl-acryloyl)-piperazin-1-ylmethyl]-phenyl}-ethylamino)-8H-pyrido[2,3-d]pyrimidin-7-one]
< 1 nM | 541 nM | 2 nM | 18 nM | 2 nM | C=CC(=O)N1CCN(C(CC)c2ccc([C@H](C)Nc3ncc4ccc(=O)n(C(C)C)c4n3)cc2)CC1 (stereo partly drawn) [cpd 187, 2-{[(1S)-1-{4-[1-(4-acryloylpiperazin-1-yl)propyl]phenyl}ethyl]amino}-8-(propan-2-yl)pyrido[2,3-d]pyrimidin-7(8H)-one]
10.1 nM | 221 nM | 13 nM | 98 nM | 15 nM | C=CC(=O)N1CCN(Cc2ccc([C@H](C)Nc3nc(N)c4ccc(=O)n(C(C)C)c4n3)cc2)CC1 [cpd 206, 2-{[(1S)-1-{4-[(4-acryloylpiperazin-1-yl)methyl]phenyl}ethyl]amino}-4-amino-8-(propan-2-yl)pyrido[2,3-d]pyrimidin-7(8H)-one]
– | 4290 nM | – | – | – | C=CC(=O)N1CCN(Cc2ccc([C@H](C)Nc3ncc4ccc(=O)n(C(C)C)c4n3)cn2)CC1 [cpd 213, 2-{[(1S)-1-{6-[(4-acryloylpiperazin-1-yl)methyl]pyridin-3-yl}ethyl]amino}-8-(propan-2-yl)pyrido[2,3-d]pyrimidin-7(8H)-one]
0.3 nM | 122 nM | 1 nM | 14 nM | 1 nM | C=CC(=O)N1CCN([C@H](CC2CC2)c2ccc([C@H](C)Nc3ncc4ccc(=O)n(C(C)C)c4n3)cc2)CC1 [cpd 231, 2-{[(1S)-1-{4-[(1R)-1-(4-acryloylpiperazin-1-yl)-2-cyclopropylethyl]phenyl}ethyl]amino}-8-(propan-2-yl) pyrido [2,3-d]pyrimidin-7(8H)-one]
